Key:
[1] = tested on: T cell proliferation in mouse spleen cell mixed lymphocyte cultures; experiment: Mixed Lymphocyte Reaction (MLR) assay; format: cell-based, mouse (Balb/c responder, C57B1/6 stimulator); details: for inhibition at 3 µM / inhibition at 10 µM / inhibition at 30 µM / inhibition at 100 µM / inhibition at 300 µM: Mus musculus, Lymphocyte, read-out: % Change From Control, MLR
Outline: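 Balb/c responder spleen cells (2.5×10^5) co-cultured with mitomycin C-treated C57Bl/6 stimulators (5×10^5) for 5 days at 37 C with compound dilutions of 3–300 uM or DMSO. Proliferation read by MTT (OD 570-650 nm). Allogeneic minus syngeneic means were expressed as % change from vehicle control.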

[2] = tested on: Interleukin 1 (IL-1) production by peritoneal macrophages; experiment: IL-1 Assay: production of interleukin-1 by peritoneal macrophages (thymocyte bioassay); format: cell-based, mouse (C57B1/6); design: inhibition: dose or concentration left out as unconfirmed; details: for inhibition at 0.001 µg/mL / inhibition at 0.01 µg/mL / inhibition at 0.1 µg/mL / inhibition at 2.5 µg/mL / inhibition at 10 µg/mL / inhibition at 25 µg/mL / inhibition at 100 µg/mL / inhibition: Mus musculus, Peritoneal macrophage, read-out: % effect on IL-1 production (thymidine uptake by thymocytes)
From the text: Interleukin 1 (IL-1) is a potent immunomodulatory cytokine that has a broad range of pro-inflammatory activities. IL-1 is known to be produced by activated accessory cells such as macrophages. Accessory cell production of IL-1 results in the activation and proliferation of T and B lymphocytes. Therefore, by inhibiting macrophage activation and production of IL-1, the activation and proliferation of the cellular effectors of inflammation can be modulated. Compounds of the invention were screened for inhibitory activity in a classical IL-1 assay. Six to 8 week old male C57B1/6 mice were purchased from Harlan Sprague Dawley. Peritoneal macrophages were elicited by the administration to mice of a single intraperitoneal injection of 0.2 ml of complete Freund's adjuvant. After 48 hours, elicited macrophages were removed from the mice by lavage with the use of Hank's balanced salt solution. […] To the macrophage cultures were added various doses of the compounds of the invention and 10 ug/ml of the macrophage activator lipopolysaccharide (to stimulate IL-1 production). Control cultures consisted of macrophages, lipopolysaccharide and culture medium containing various doses of DMSO only. […] The amount of IL-1 produced in the individual wells was determined in a bioassay for IL-1. This involved the removal of thymuses from mice less than 8 weeks of age. Thymocytes were isolated by passing each thymus through a stainless steel mesh screen. […] After 18 hours cells were harvested and radioactive incorporation (as a measure of cell proliferation) was quantitated in a liquid scintillation counter. The students t test was used to determine the significance of the difference between experimental and control values.

Row | SMILES | Mean O.D. Allogenic ([1]; 3 um) [O.D.] | Mean O.D. Syngeneic ([1]; 3 um) [O.D.] | Mean O.D. Allogenic ([1]; 10 um) [O.D.] | Mean O.D. Syngeneic ([1]; 10 um) [O.D.] | ^3 H-Thymidine uptake by thymocytes ([2]; 0.001 ug/ml) | ^3 H-Thymidine uptake by thymocytes ([2]; 0.01 ug/ml) | ^3 H-Thymidine uptake by thymocytes ([2]; 0.1 ug/ml) | ^3 H-Thymidine uptake by thymocytes ([2]; 1 ug/ml) | ^3 H-Thymidine uptake by thymocytes ([2]; 2.5 ug/ml) | ^3 H-Thymidine uptake by thymocytes ([2]; 10 ug/ml) | ^3 H-Thymidine uptake by thymocytes ([2]; 25 ug/ml) | ^3 H-Thymidine uptake by thymocytes ([2]; 100 ug/ml) | inhibition at 0.001 µg/mL ([2]; 0.001 ug/ml) [%] | inhibition at 0.01 µg/mL ([2]; 0.01 ug/ml) [%] | inhibition at 0.1 µg/mL ([2]; 0.1 ug/ml) [%] | inhibition at 2.5 µg/mL ([2]; 2.5 ug/ml) [%] | inhibition at 10 µg/mL ([2]; 10 ug/ml) [%] | inhibition at 25 µg/mL ([2]; 25 ug/ml) [%] | inhibition at 100 µg/mL ([2]; 100 ug/ml) [%] | inhibition [2] [%] | also measured
1 | CN1CCCC1CCNC[C@H]1OC(C)(C)O[C@@H]2[C@H]3OC(C)(C)O[C@H]3O[C@@H]21 (stereo partly shown) [IIIi] | 0.128 | 0.090 | 0.180 | 0.102 | 11,367 ± 906 cpm | 9,902 ± 888 cpm | 10,740 ± 724 cpm | 9,561 ± 113 cpm | 5,382 ± 45 cpm | 5,169 ± 870 cpm | 5,052 ± 140 cpm | 2,328 ± 278 cpm | -39 | -20 | -39 | 35 | 33 | 34 | 65 | -22 | effect on MLR in words [1]: strong non dose dependent inhibition of T lymphocyte proliferation; Mean O.D. Allogenic ([1]; 30 um): 0.165 O.D.; Mean O.D. Syngeneic ([1]; 30 um): 0.078 O.D.; Mean O.D. Allogenic ([1]; 100 um): 0.095 O.D.; Mean O.D. Syngeneic ([1]; 100 um): 0.066 O.D.; Mean O.D. Allogenic ([1]; 300 um): 0.019 O.D.; Mean O.D. Syngeneic ([1]; 300 um): 0.030 O.D.; inhibition at 3 µM ([1]; 3 um): 15%; inhibition at 10 µM ([1]; 10 um): 48%; inhibition at 30 µM ([1]; 30 um): 42%; inhibition at 100 µM ([1]; 100 um): 81%; inhibition at 300 µM ([1]; 300 um): 107%
2 | CCCCCCCOCCCO[C@@H]1[C@H]2OC(C)(C)O[C@H]2O[C@@H]1[C@H](O)CO [IIg] |  |  |  |  | 8,823 ± 771 cpm | 7,873 ± 379 cpm | 8,790 ± 533 cpm | 7,307 ± 680 cpm | 7,229 ± 471 cpm | 4,854 ± 471 cpm | 3,265 ± 141 cpm | 934 ± 43 cpm | -8 | 4 | -14 | 13 | 37 | 57 | 80 | 6 | % Change From Control, MLR ([1]; Table X, 3 ugm): -61%; % Change From Control, MLR ([1]; Table X, 10 ugm): -15%; Mean O.D. Allogenic ([1]; Table X, 10 ugm): 0.197 O.D.; Mean O.D. Syngeneic ([1]; Table X, 10 ugm): 0.070 O.D.; % Change From Control, MLR ([1]; Table X, 30 ugm): -36%; Mean O.D. Allogenic ([1]; Table X, 30 ugm): 0.171 O.D.; Mean O.D. Syngeneic ([1]; Table X, 30 ugm): 0.075 O.D.; % Change From Control, MLR ([1]; Table X, 100 ugm): -101%; % Change From Control, MLR ([1]; Table X, 300 ugm): -97%; strong non-dose dependent inhibition in MLR ([1]; several concentrations): greater than -50 % of control
3 | CC1(C)OC2OC(C(O)COCCCc3ccccc3)C(O)C2O1 [IIIe, 1,2-O-Isopropylidene-6-O-3'-(phenylpropyl)-α-D-glucofuranose] | 0.174 | 0.052 | 0.122 | 0.081 | 7,276 ± 399 cpm | 8,908 ± 773 cpm | 8,049 ± 282 cpm | 4,279 ± 691 cpm | 3,676 ± 506 cpm | 2,586 ± 553 cpm | 1,840 ± 301 cpm | 1,129 ± 299 cpm | -11 | -8 | -4 | 56 | 66 | 76 | 83 | -45 | Mean O.D. Allogenic ([1]; 30 um): 0.084 O.D.; Mean O.D. Syngeneic ([1]; 30 um): 0.066 O.D.; Mean O.D. Allogenic ([1]; 100 um): 0.034 O.D.; Mean O.D. Syngeneic ([1]; 100 um): 0.024 O.D.; Mean O.D. Allogenic ([1]; 300 um): 0.009 O.D.; Mean O.D. Syngeneic ([1]; 300 um): 0.010 O.D.; inhibition at 3 µM ([1]; 3 um): 19%; inhibition at 10 µM ([1]; 10 um): 73%; inhibition at 30 µM ([1]; 30 um): 88%; inhibition at 100 µM ([1]; 100 um): 93%; inhibition at 300 µM ([1]; 300 um): 101%
4 | CCCCC/C=C/COC[C@H]1O[C@@]2(OC)COC(C)(C)O[C@H]2[C@@H]1OC/C=C/CCCCC [Ie, methyl 1,3-O-isopropylidene-4,6-di-O-(trans,2-octenyl)-α-D-fructofuranoside] | 0.341 | 0.133 | 0.318 | 0.130 | 12,713 ± 866 cpm | 12,040 cpm | 11,047 ± 702 cpm | 9,710 ± 1,323 cpm | 7,000 ± 686 cpm | 6,100 ± 775 cpm | 5,300 ± 1,405 cpm | 4,300 ± 1,100 cpm | -17 | -11 | 1 | 30 | 40 | 40 | 51 | 12 | Mean O.D. Allogenic ([1]; 30 um): 0.266 O.D.; Mean O.D. Syngeneic ([1]; 30 um): 0.178 O.D.; Mean O.D. Allogenic ([1]; 100 um): 0.216 O.D.; Mean O.D. Syngeneic ([1]; 100 um): 0.146 O.D.; Mean O.D. Allogenic ([1]; 300 um): 0.152 O.D.; Mean O.D. Syngeneic ([1]; 300 um): 0.082 O.D.; inhibition at 3 µM ([1]; 3 um): -8%; inhibition at 10 µM ([1]; 10 um): 2%; inhibition at 30 µM ([1]; 30 um): 54%; inhibition at 100 µM ([1]; 100 um): 64%; inhibition at 300 µM ([1]; 300 um): 64%
5 | CCCCCCCOC[C@H]1O[C@@]2(OC)COC(C)(C)O[C@H]2[C@@H]1O [Ia, methyl 1,3-O-isopropylidene-6-O-heptyl-α-D-fructofuranoside] | 0.375 | 0.193 | 0.361 | 0.175 | 10,550 cpm | 10,960 cpm | 10,265 ± 227 cpm | 10,777 ± 1,903 cpm | 8,250 ± 705 cpm | 4,970 ± 410 cpm | 3,210 ± 149 cpm | 2,215 ± 643 cpm | 3 | -1 | 8 | 28 | 51 | 63 | 75 | 2 | Mean O.D. Allogenic ([1]; 30 um): 0.334 O.D.; Mean O.D. Syngeneic ([1]; 30 um): 0.167 O.D.; Mean O.D. Allogenic ([1]; 100 um): 0.429 O.D.; Mean O.D. Syngeneic ([1]; 100 um): 0.192 O.D.; Mean O.D. Allogenic ([1]; 300 um): 0.162 O.D.; Mean O.D. Syngeneic ([1]; 300 um): 0.107 O.D.; inhibition at 3 µM ([1]; 3 um): 5%; inhibition at 10 µM ([1]; 10 um): 3%; inhibition at 30 µM ([1]; 30 um): 13%; inhibition at 100 µM ([1]; 100 um): -23%; inhibition at 300 µM ([1]; 300 um): 71%
